IC50 data for 23 molecules are collected here from patent US9975876B2, “2-pyridyloxy-3-ester-4-ether orexin receptor antagonists” (MERCK SHARP & DOHME CORP., priority 2013, dated 2018).

One assay has as its target human orexin-2 receptor (Homo sapiens (Human), UniProt O43614). The assay can be described thus: FLIPR Ca2+ flux assay, orexin-2 receptor antagonism. It counts as cell-based. The conditions noted are these: CHO cells; agonist 70 pM Ala-6,12 human orexin-A; read-out: hOX2R FLIPR IC50. The procedure: In a typical experiment the OX1 and OX2 receptor antagonistic activity of the compounds of the present invention was determined in accordance with the following experimental method. For intracellular calcium measurements, Chinese hamster ovary (CHO) cells expressing the rat orexin-1 receptor or the human orexin-2 receptor, are grown in Iscove's modified DMEM containing 2 mM L-glutamine, […], 1% hypoxanthine-thymidine supplement, 100 U/ml penicillin, 100 μg/ml streptomycin and 10% heat-inactivated fetal calf serum (FCS). The cells are seeded at 20,000 cells/well into Becton-Dickinson black 384-well clear bottom sterile plates coated with poly-D-lysine. All reagents were from GIBCO-Invitrogen Corp. The seeded plates are incubated overnight at 37° C. and 5% CO2. Ala-6,12 human orexin-A as the agonist is prepared as a 1 mM stock solution in 1% bovine serum albumin (BSA) and diluted in assay buffer (HBSS containing 20 mM HEPES, 0.1% BSA and 2.5 mM probenecid, pH7.4) for use in the assay at a final concentration of 70 pM. Test compounds are prepared as 10 mM stock solution in DMSO, then diluted in 384-well plates, first in DMSO, then assay buffer. On the day of the assay, cells are washed 3 times with 100 μl assay buffer and then incubated for 60 min (37° C., 5% CO2) in 60 μl assay buffer containing 1 μM Fluo-4AM ester, 0.02% pluronic acid, and 1% BSA. The dye loading solution is then aspirated and cells are washed 3 times with 100 μl assay buffer. 30 μl of that same buffer is left in each well. Within the Fluorescent Imaging Plate Reader (FLIPR, Molecular Devices), test compounds are added to the plate in a volume of 25 μl, incubated for 5 min and finally 25 μl of agonist is added. Fluorescence is measured for each well at 1 second intervals for 5 minutes and the height of each fluorescence peak is compared to the height of the fluorescence peak induced by 70 pM Ala-6,12 orexin-A with buffer in place of antagonist. […] The intrinsic orexin receptor antagonist activity of a compound which may be used in the present invention may be determined by these assays.

In the next assay the target is hOX1R (Homo sapiens, UniProt O43613). The assay is described as follows: FLIPR Ca2+ flux assay, orexin-1 receptor antagonism. The class given is cell-based. The note with it: CHO cells; agonist 70 pM Ala-6,12 human orexin-A. (A change in cytosolic calcium serves as a functional read-out for many receptors and channels.)

human orexin-2 receptor, sequence (O43614 whole entry): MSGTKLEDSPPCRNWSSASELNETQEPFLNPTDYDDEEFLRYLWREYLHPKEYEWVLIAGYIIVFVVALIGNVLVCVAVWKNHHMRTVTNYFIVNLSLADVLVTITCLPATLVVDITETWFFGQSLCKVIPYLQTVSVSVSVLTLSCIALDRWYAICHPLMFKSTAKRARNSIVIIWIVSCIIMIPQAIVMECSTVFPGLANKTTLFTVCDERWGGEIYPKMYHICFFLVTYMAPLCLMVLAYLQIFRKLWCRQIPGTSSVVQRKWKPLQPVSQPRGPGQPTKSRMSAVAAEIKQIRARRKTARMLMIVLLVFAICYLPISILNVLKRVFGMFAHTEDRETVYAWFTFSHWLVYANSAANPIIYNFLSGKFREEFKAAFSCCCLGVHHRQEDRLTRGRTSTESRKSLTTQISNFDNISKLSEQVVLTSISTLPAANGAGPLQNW

With `COC(=O)c1c(OC)ccnc1O[C@@H]1CC[C@@H](C)N(C(=O)c2ccccc2-n2nccn2)C1` [Example 1, Methyl 4-methoxy-2-{[(3R,6R)-6-methyl-1-{[2-(2H-1,2,3-triazol-2-yl)phenyl]carbonyl}piperidin-3-yl]oxy}pyridine-3-carboxylate], the IC50 on human orexin-2 receptor was 33 nM; on hOX1R it was 1340 nM.

For the molecule `COC(=O)c1c(OC)ccnc1O[C@@H]1CC[C@@H](C)N(C(=O)c2cccc(F)c2-n2nccn2)C1` [Example 2, Methyl 2-{[(3R,6R)-1-{[3-fluoro-2-(2H-1,2,3-triazol-2-yl)phenyl]carbonyl}-6-methylpiperidin-3-yl]oxy}-4-methoxypyridine-3-carboxylate], the IC50 at human orexin-2 receptor was 37 nM; at hOX1R, 2900 nM.

For `COC(=O)c1c(OC)ccnc1O[C@@H]1CC[C@@H](C)N(C(=O)c2ccc(Cl)cc2-n2nccn2)C1` [Example 3], the figures for the IC50 at human orexin-2 receptor and on hOX1R were 33.6 nM and 1420 nM, respectively.

Regarding `COC(=O)c1c(OC)ccnc1O[C@@H]1CC[C@@H](C)N(C(=O)c2ccc(F)cc2-n2nccn2)C1` [Example 4, methyl 2-{[(3R,6R)-1-{[4-fluoro-2-(2H-1,2,3-triazol-2-yl)phenyl]carbonyl}-6-methylpiperidin-3-yl]oxy}-4-methoxypyridine-3-carboxylate], the IC50 at human orexin-2 receptor was determined as 764 nM; on hOX1R, 3200 nM.

With `COC(=O)c1c(OC)ccnc1O[C@@H]1CC[C@@H](C)N(C(=O)c2ccc(F)cc2-c2nc(C)no2)C1` [Example 5, methyl 2-{[(3R,6R)-1-{[4-fluoro-2-(3-methyl-1,2,4-oxadiazol-5-yl)phenyl]carbonyl}-6-methylpiperidin-3-yl]oxy}-4-methoxypyridine-3-carboxylate], the IC50 on human orexin-2 receptor came out at 52 nM; on hOX1R, 3100 nM.

Consider `COC(=O)c1c(OC)ccnc1O[C@@H]1CC[C@@H](C)N(C(=O)c2c(F)cccc2-n2nccn2)C1` [Example 6, methyl 2-{[(3R,6R)-1-{[2-fluoro-6-(2H-1,2,3-triazol-2-yl)phenyl]carbonyl}-6-methylpiperidin-3-yl]oxy}-4-methoxypyridine-3-carboxylate], for which the IC50 is 82.9 nM on human orexin-2 receptor and 2310 nM on hOX1R.

In the case of `COC(=O)c1c(OC)ccnc1O[C@@H]1CC[C@@H](C)N(C(=O)c2cc(F)ccc2-n2nccn2)C1` [Example 7, methyl 2-{[(3R,6R)-1-{[5-fluoro-2-(2H-1,2,3-triazol-2-yl)phenyl]carbonyl}-6-methylpiperidin-3-yl]oxy}-4-methoxypyridine-3-carboxylate], the IC50 came out at 27.6 nM on human orexin-2 receptor and 1460 nM at hOX1R.

As for `COC(=O)c1c(OC)ccnc1O[C@@H]1CC[C@@H](C)N(C(=O)c2c(F)cccc2-c2noc(C)n2)C1` [Example 8, methyl 2-{[(3R,6R)-1-{[2-fluoro-6-(5-methyl-1,2,4-oxadiazol-3-yl)phenyl]carbonyl}-6-methylpiperidin-3-yl]oxy}-4-methoxypyridine-3-carboxylate], the figures for the IC50 on human orexin-2 receptor and at hOX1R were 71.1 nM and 10000 nM, respectively.

As to `COC(=O)c1c(OC)ccnc1O[C@@H]1CC[C@@H](C)N(C(=O)c2cc(F)ccc2-c2noc(C)n2)C1` [Example 9], the IC50 on human orexin-2 receptor amounted to 36.7 nM; on hOX1R, 1500 nM.

In the case of `COC(=O)c1c(OC)ccnc1O[C@@H]1CC[C@@H](C)N(C(=O)c2ccc(F)cc2-c2noc(C)n2)C1` [Example 10, methyl 2-{[(3R,6R)-1-{[4-fluoro-2-(5-methyl-1,2,4-oxadiazol-3-yl)phenyl]carbonyl}-6-methylpiperidin-3-yl]oxy}-4-methoxypyridine-3-carboxylate], the IC50 at human orexin-2 receptor worked out at 58.7 nM; at hOX1R, 10000 nM.

Consider `COC(=O)c1c(OC)ccnc1O[C@@H]1CC[C@@H](C)N(C(=O)c2cccc(F)c2-c2noc(C)n2)C1` [Example 11, methyl 2-{[(3R,6R)-1-{[3-fluoro-2-(5-methyl-1,2,4-oxadiazol-3-yl)phenyl]carbonyl}-6-methylpiperidin-3-yl]oxy}-4-methoxypyridine-3-carboxylate], for which the IC50 at human orexin-2 receptor came out at 31.8 nM; at hOX1R, 2270 nM.

On hOX1R, `COC(=O)c1c(OC)ccnc1O[C@@H]1CC[C@@H](C)N(C(=O)c2c(F)cccc2-c2nc(C)no2)C1` [Example 12, methyl 2-{[(3R,6R)-1-{[2-fluoro-6-(3-methyl-1,2,4-oxadiazol-5-yl)phenyl]carbonyl}-6-methylpiperidin-3-yl]oxy}-4-methoxypyridine-3-carboxylate] showed an IC50 of 4470 nM.

In the case of `COC(=O)c1c(OC)ccnc1O[C@@H]1CC[C@@H](C)N(C(=O)c2cc(F)ccc2-c2nc(C)no2)C1` [Example 13, methyl 2-{[(3R,6R)-1-{[5-fluoro-2-(3-methyl-1,2,4-oxadiazol-5-yl)phenyl]carbonyl}-6-methylpiperidin-3-yl]oxy}-4-methoxypyridine-3-carboxylate], the IC50 on human orexin-2 receptor came out at 34.6 nM; at hOX1R, 1160 nM.

Consider `COC(=O)c1c(OC)ccnc1O[C@@H]1CC[C@@H](C)N(C(=O)c2cccc(C)c2-n2nccn2)C1` [Example 14, methyl 4-methoxy-2-{[(3R,6R)-6-methyl-1-{[3-methyl-2-(2H-1,2,3-triazol-2-yl)phenyl]carbonyl}piperidin-3-yl]oxy}pyridine-3-carboxylate], for which the IC50 on human orexin-2 receptor is 37.9 nM; at hOX1R, 777 nM.

For `COC(=O)c1c(OC)ccnc1O[C@@H]1CC[C@@H](C)N(C(=O)c2ccc(OC)cc2-n2nccn2)C1` [Example 15, methyl 4-methoxy-2-{[(3R,6R)-1-{[4-methoxy-2-(2H-1,2,3-triazol-2-yl)phenyl]carbonyl}-6-methylpiperidin-3-yl]oxy}pyridine-3-carboxylate], the IC50 at human orexin-2 receptor was determined as 51 nM; on hOX1R it was 10000 nM.

As to `COC(=O)c1c(OC)ccnc1O[C@@H]1CC[C@@H](C)N(C(=O)c2ccc(OC)nc2-n2nccn2)C1` [Example 17, methyl 4-methoxy-2-{[(3R,6R)-1-{[6-methoxy-2-(2H-1,2,3-triazol-2-yl)pyridin-3-yl]carbonyl}-6-methylpiperidin-3-yl]oxy}pyridine-3-carboxylate], the IC50 came out at 52 nM on human orexin-2 receptor and 10000 nM at hOX1R.

As to `COC(=O)c1c(OC)ccnc1O[C@@H]1CC[C@@H](C)N(C(=O)c2cccc(F)c2-c2nc(C)no2)C1` [Example 18, methyl 2-{[(3R,6R)-1-{[3-fluoro-2-(3-methyl-1,2,4-oxadiazol-5-yl)phenyl]carbonyl}-6-methylpiperidin-3-yl]oxy}-4-methoxypyridine-3-carboxylate], the results for the IC50 at human orexin-2 receptor and on hOX1R were 39.5 nM and 932 nM, respectively.

As for `COC(=O)c1c(OC)ccnc1O[C@@H]1CC[C@@H](C)N(C(=O)c2ccccc2-c2ncccn2)C1` [Example 19], the IC50 was 114 nM at human orexin-2 receptor and 1870 nM on hOX1R.

For `COC(=O)c1c(OC)ccnc1O[C@@H]1CC[C@@H](C)N(C(=O)c2ccc(F)cc2-c2ncccn2)C1` [Example 21, methyl 2-({(3R,6R)-1-[(4-fluoro-2-pyrimidin-2-ylphenyl)carbonyl]-6-methylpiperidin-3-yl}oxy)-4-methoxypyridine-3-carboxylate], the IC50 on human orexin-2 receptor came to 71.2 nM; on hOX1R it was 1460 nM.

For `COC(=O)c1c(OC)ccnc1O[C@@H]1CC[C@@H](C)N(C(=O)c2cccc(F)c2-c2ncccn2)C1` [Example 22, methyl 2-({(3R,6R)-1-[(3-fluoro-2-pyrimidin-2-ylphenyl)carbonyl]-6-methylpiperidin-3-yl}oxy)-4-methoxypyridine-3-carboxylate], the IC50 at human orexin-2 receptor was found to be 117 nM; on hOX1R, 3780 nM.

`COC(=O)c1c(OC)ccnc1O[C@@H]1CC[C@@H](C)N(C(=O)c2ccccc2-n2ncnn2)C1` [Example 23, Methyl 4-methoxy-2-{[(3R,6R)-6-methyl-1-{[2-(2H-tetrazol-2-yl)phenyl]carbonyl}piperidin-3-yl]oxy}pyridine-3-carboxylate]: the IC50 at human orexin-2 receptor amounted to 27.7 nM; on hOX1R, 2140 nM.

Turning to `CCOC(=O)c1c(OC)ccnc1O[C@@H]1CC[C@@H](C)N(C(=O)c2ccccc2-n2nccn2)C1` [Example 25, ethyl 4-methoxy-2-{[(3R,6R)-6-methyl-1-{[2-(2H-1,2,3-triazol-2-yl)phenyl]carbonyl}piperidin-3-yl]oxy}pyridine-3-carboxylate], the IC50 on human orexin-2 receptor worked out at 19.3 nM; on hOX1R, 814 nM.

`CCOC(=O)c1c(OC)ccnc1O[C@@H]1CC[C@@H](C)N(C(=O)c2cccc(F)c2-n2nccn2)C1` [Example 26]: the IC50 on human orexin-2 receptor turned out to be 39.6 nM; on hOX1R, 2790 nM.

By IC50 is commonly meant the concentration needed to halve the response being measured.
